We go through 2 molecules from ChEMBL document CHEMBL3784948, “Pharmacokinetics of diclofenac and five metabolites after single doses in healthy volunteers and after repeated doses in patients” (Xenobiotica, 1988).

Assay type in all cases: ADME, organism-based
The nature of data set [1]: Total drug excretion in healthy volunteer (3 volunteers) urine at 100 mg, po administered as single dose measured over 96 hrs by capillary column gas chromatographic method. The following applies: human, in vivo.
Data set [2] has as its system Homo sapiens. Description: AUC (0 to 96 hrs) in healthy volunteer (3 volunteers) assessed as 4'-hydroxy diclofenac at 100 mg, po administered as single dose by capillary column gas chromatographic method. The following applies: in vivo. Also noted: time < 96 hr, dose 100 mg, route oral.
Data set [3] has as its system Homo sapiens. The data set is described as follows: Apparent elimination half life in healthy volunteer (3 volunteers) assessed as 4'-hydroxy diclofenac at 100 mg, po administered as single dose by capillary column gas chromatographic method. The conditions noted are these: in vivo.
Data set [4] has as its system Homo sapiens. The data set is described as follows: AUC (0 to 96 hrs) in healthy volunteer (3 volunteers) assessed as 3'-hydroxy-4'-methoxy diclofenac at 100 mg, po administered as single dose by capillary column gas chromatographic method. Also noted: dose 100 mg, time < 96 hr, route oral. The conditions noted are these: in vivo.
Data set [5] deals with Homo sapiens. Description: AUC (0 to 96 hrs) in healthy volunteer (3 volunteers) assessed as 4',5-dihydroxy diclofenac at 100 mg, po administered as single dose by capillary column gas chromatographic method. Also noted: time < 96 hr, dose 100 mg, route oral. The following applies: in vivo.
The nature of data set [6]: Total drug excretion in healthy volunteer (3 volunteers) urine assessed as 4'-hydroxy diclofenac at 100 mg, po administered as single dose measured over 96 hrs by capillary column gas chromatographic method. The following applies: human, in vivo.
The subject of data set [7] is Homo sapiens. The data set is described as follows: AUC (0 to infinity) in healthy volunteer (3 volunteers) assessed as 5-hydroxy diclofenac at 100 mg, po administered as single dose by capillary column gas chromatographic method. Also noted: dose 100 mg, route oral, time infinity. The following applies: in vivo.
Data set [8] deals with Homo sapiens. Description: Cmax in healthy volunteer (3 volunteers) assessed as 4'-hydroxy diclofenac at 100 mg, po administered as single dose by capillary column gas chromatographic method. More on the design: dose 100 mg, route oral. The conditions noted are these: in vivo.
The subject of data set [9] is Homo sapiens. The data set is described as follows: AUC (0 to infinity) in healthy volunteer (3 volunteers) assessed as 4'-hydroxy diclofenac at 100 mg, po administered as single dose by capillary column gas chromatographic method. More on the design: dose 100 mg, route oral, time infinity. The following applies: in vivo.
A short description of data set [10]: Tmax in healthy volunteer (3 volunteers) at 100 mg, po administered as single dose by capillary column gas chromatographic method. The conditions noted are these: human, in vivo.
Data set [11] relates to Homo sapiens. Description: Tmax in healthy volunteer (3 volunteers) assessed as 3'-hydroxy-4'-methoxy diclofenac at 100 mg, po administered as single dose by capillary column gas chromatographic method. The conditions noted are these: in vivo.
In data set [12] the test system is Homo sapiens. The data set is described as follows: Apparent elimination half life in healthy volunteer (3 volunteers) assessed as 4',5-dihydroxy diclofenac at 100 mg, po administered as single dose by capillary column gas chromatographic method. The following applies: in vivo.
The test system of data set [13] is Homo sapiens. Description: Apparent elimination half life in healthy volunteer (3 volunteers) assessed as 3'-hydroxy diclofenac at 100 mg, po administered as single dose by capillary column gas chromatographic method. The following applies: in vivo.
The subject of data set [14] is Homo sapiens. The data set is described as follows: Tmax in healthy volunteer (3 volunteers) assessed as 5-hydroxy diclofenac at 100 mg, po administered as single dose by capillary column gas chromatographic method. The following applies: in vivo.
Data set [15] has as its system Homo sapiens. Description: AUC (0 to infinity) in healthy volunteer (3 volunteers) at 100 mg, po administered as single dose by capillary column gas chromatographic method. More on the design: dose 100 mg, time infinity, route oral. The conditions noted are these: in vivo.
For data set [16], the system named is Homo sapiens. The data set is described as follows: Cmax in healthy volunteer (3 volunteers) assessed as 5-hydroxy diclofenac at 100 mg, po administered as single dose by capillary column gas chromatographic method. Also noted: dose 100 mg, route oral. The following applies: in vivo.
The subject of data set [17] is Homo sapiens. The data set is described as follows: Cmax in healthy volunteer (3 volunteers) assessed as 3'-hydroxy-4'-methoxy diclofenac at 100 mg, po administered as single dose by capillary column gas chromatographic method. More on the design: dose 100 mg, route oral. The conditions noted are these: in vivo.
Data set [18] has as its system Homo sapiens. Description: Apparent elimination half life in healthy volunteer (3 volunteers) assessed as 5-hydroxy diclofenac at 100 mg, po administered as single dose by capillary column gas chromatographic method. The conditions noted are these: in vivo.
Data set [19] deals with Homo sapiens. The data set is described as follows: Cmax in healthy volunteer (3 volunteers) at 100 mg, po administered as single dose by capillary column gas chromatographic method. The conditions noted are these: in vivo. Also noted: dose 100 mg, route oral.
The subject of data set [20] is Homo sapiens. Description: AUC (0 to 72 hrs) in healthy volunteer assessed as 3'-hydroxy-4'-methoxy diclofenac at 100 mg, po administered as single dose by capillary column gas chromatographic method. The following applies: in vivo. Also noted: time < 72 hr, dose 100 mg, route oral.
Data set [21] has as its system Homo sapiens. Description: AUC (0 to 96 hrs) in healthy volunteer (3 volunteers) assessed as 5-hydroxy diclofenac at 100 mg, po administered as single dose by capillary column gas chromatographic method. Also noted: dose 100 mg, time < 96 hr, route oral. The following applies: in vivo.
A short description of data set [22]: Total drug excretion in healthy volunteer (3 volunteers) urine assessed as 3'-hydroxy diclofenac at 100 mg, po administered as single dose measured over 96 hrs by capillary column gas chromatographic method. The conditions noted are these: human, in vivo.
A short description of data set [23]: Total drug excretion in healthy volunteer (3 volunteers) urine assessed as 3'-hydroxy-4'-methoxy diclofenac at 100 mg, po administered as single dose measured over 96 hrs by capillary column gas chromatographic method. The following applies: human, in vivo.
Data set [24] in a line: Total drug excretion in healthy volunteer (3 volunteers) urine assessed as 5-hydroxy diclofenac at 100 mg, po administered as single dose measured over 96 hrs by capillary column gas chromatographic method. The following applies: human, in vivo.
Data set [25] is described as follows: Total drug excretion in healthy volunteer (3 volunteers) urine assessed as 4',5-dihydroxy diclofenac at 100 mg, po administered as single dose measured over 96 hrs by capillary column gas chromatographic method. The conditions noted are these: human, in vivo.
The test system of data set [26] is Homo sapiens. Description: Tmax in healthy volunteer (3 volunteers) assessed as 4',5-dihydroxy diclofenac at 100 mg, po administered as single dose by capillary column gas chromatographic method. The conditions noted are these: in vivo.
In data set [27] the test system is Homo sapiens. Description: AUC (0 to infinity) in healthy volunteer (3 volunteers) assessed as 4',5-dihydroxy diclofenac at 100 mg, po administered as single dose by capillary column gas chromatographic method. Also noted: dose 100 mg, time infinity, route oral. The following applies: in vivo.
Data set [28] relates to Homo sapiens. Description: Tmax in healthy volunteer (3 volunteers) assessed as 4'-hydroxy diclofenac at 100 mg, po administered as single dose by capillary column gas chromatographic method. The conditions noted are these: in vivo.
The nature of data set [29]: Apparent elimination half life in healthy volunteer (3 volunteers) at 100 mg, po administered as single dose by capillary column gas chromatographic method. The conditions noted are these: human, in vivo, read-out: betat1/2(app) (converted).
Data set [30] concerns Homo sapiens. Description: AUC (0 to infinity) in healthy volunteer (3 volunteers) assessed as 3'-hydroxy diclofenac at 100 mg, po administered as single dose by capillary column gas chromatographic method. More on the design: dose 100 mg, time infinity, route oral. The conditions noted are these: in vivo.
Data set [31] relates to Homo sapiens. Description: AUC (0 to 96 hrs) in healthy volunteer (3 volunteers) at 100 mg, po administered as single dose by capillary column gas chromatographic method. Also noted: time < 96 hr, dose 100 mg, route oral. The following applies: in vivo.
In data set [32] the test system is Homo sapiens. The data set is described as follows: AUC (0 to 96 hrs) in healthy volunteer (3 volunteers) assessed as 3'-hydroxy diclofenac at 100 mg, po administered as single dose by capillary column gas chromatographic method. More on the design: dose 100 mg, time < 96 hr, route oral. The conditions noted are these: in vivo.
Data set [33] relates to Homo sapiens. The data set is described as follows: Apparent elimination half life in healthy volunteer (3 volunteers) assessed as 3'-hydroxy-4'-methoxy diclofenac at 100 mg, po administered as single dose by capillary column gas chromatographic method. The conditions noted are these: in vivo.
Data set [34] deals with Homo sapiens. The data set is described as follows: Cmax in healthy volunteer (3 volunteers) assessed as 3'-hydroxy diclofenac at 100 mg, po administered as single dose by capillary column gas chromatographic method. More on the design: dose 100 mg, route oral. The following applies: in vivo.
In data set [35] the test system is Homo sapiens. Description: Cmax in healthy volunteer (3 volunteers) assessed as 4',5-dihydroxy diclofenac at 100 mg, po administered as single dose by capillary column gas chromatographic method. More on the design: dose 100 mg, route oral. The conditions noted are these: in vivo.
For data set [36], the system named is Homo sapiens. Description: AUC (0 to infinity) in healthy volunteer (2 volunteers) assessed as 3'-hydroxy-4'-methoxy diclofenac at 100 mg, po administered as single dose by capillary column gas chromatographic method. The following applies: in vivo. More on the design: dose 100 mg, route oral, time infinity.
The subject of data set [37] is Homo sapiens. The data set is described as follows: Tmax in healthy volunteer (3 volunteers) assessed as 3'-hydroxy diclofenac at 100 mg, po administered as single dose by capillary column gas chromatographic method. The following applies: in vivo.
Data set [38] relates to Plasma. The data set is described as follows: Steady state trough plasma concentration in chronic polyarthritis patient (6 patients) assessed as 3'-hydroxy-4'-methoxy diclofenac at 75 mg, po bid administered for 6 to 10 months by capillary column gas chromatographic method. The following applies: human, in vivo.
Data set [39] has as its system Plasma. Description: Steady state trough plasma concentration in chronic polyarthritis patient (6 patients) assessed as 4',5-dihydroxy diclofenac at 75 mg, po bid administered for 6 to 10 months by capillary column gas chromatographic method. The conditions noted are these: human, in vivo.
Data set [40] has as its system Plasma. The data set is described as follows: Steady state trough plasma concentration in chronic polyarthritis patient (6 patients) assessed as 5-hydroxy diclofenac at 75 mg, po bid administered for 6 to 10 months by capillary column gas chromatographic method. The conditions noted are these: human, in vivo.
Data set [41] deals with Plasma. The data set is described as follows: Steady state trough plasma concentration in chronic polyarthritis patient (6 patients) at 75 mg, po bid administered for 6 to 10 months by capillary column gas chromatographic method. The following applies: human, in vivo.
Data set [42] relates to Plasma. The data set is described as follows: Steady state trough plasma concentration in chronic polyarthritis patient (6 patients) assessed as 4'-hydroxy diclofenac at 75 mg, po bid administered for 6 to 10 months by capillary column gas chromatographic method. The conditions noted are these: human, in vivo.
The test system of data set [43] is Plasma. Description: Steady state trough plasma concentration in chronic polyarthritis patient (6 patients) assessed as 3'-hydroxy diclofenac at 75 mg, po bid administered for 6 to 10 months by capillary column gas chromatographic method. The following applies: human, in vivo.

For orientation: Tmax means the time from dosing to the highest level.

For `O=C([O-])Cc1ccccc1Nc1c(Cl)cccc1Cl.[Na+]` [DICLOFENAC SODIUM], the Drug excretion in [1] is reported as 4.45 %ID; in data set [6], 9.92 %ID; in data set [22], 2.79 %ID; in data set [23] it was 1.3 %ID; in [24], 4.66 %ID; in data set [25] it was 5.86 %ID. The AUC in data set [2] was 2.43 nmol·h/g; in data set [4], 35.22 nmol·h/g; in data set [5], 1.46 nmol·h/g; in [7], 0.58 nmol·h/g; in data set [9], 2.43 nmol·h/g; in data set [15] it was 6.05 nmol·h/g. Moreover, the AUC in data set [20] was found to be 46.09 nmol·h/g; in data set [21], 0.58 nmol·h/g; in [27] it was 1.46 nmol·h/g; in data set [30], 1.71 nmol·h/g; in data set [31], 6.05 nmol·h/g; in data set [32], 1.71 nmol·h/g. Also, the AUC in data set [36] was 61.82 nmol·h/g. For the same molecule, the “betat1/2(app)” value was 2 h in [3]; 2.6 h in [12]; 1.1 h in data set [13]; 1 h in data set [18]; 78 h in data set [33]. In addition, the Cmax in data set [8] is listed as 1.19 nmol/g; in data set [16], 0.45 nmol/g; in [17] it was 0.49 nmol/g; in data set [19], 9.73 nmol/g; in data set [34] it was 0.36 nmol/g; in data set [35], 0.44 nmol/g. The Tmax in data set [10] is 19.8 min; in data set [11], 720 min; in data set [14] it was 19.8 min; in [26], 40.2 min; in data set [28], 19.8 min; in [37], 19.8 min. Also, the half-life in data set [29] is 60 min.
As for `Cc1nnc(SCC2=C(C(=O)O)N3C(=O)[C@@H](NC(=O)Cn4cc(Cl)c(=O)c(Cl)c4)[C@H]3SC2)s1` [CEFAZEDONE], the Cminss came to 3.687 nmol/g in data set [38]; 0.252 nmol/g in data set [39]; 0.234 nmol/g in data set [40]; 0.565 nmol/g in data set [41]; 0.438 nmol/g in [42]; 0.302 nmol/g in data set [43].
